Reference: paper PMC8150775, “Repositioning Azelnidipine as a Dual Inhibitor Targeting CD47/SIRPα and TIGIT/PVR Pathways for Cancer Immuno-Therapy” (Biomolecules, 2021)

Columns and labels:
CD47/SIRPα interaction = biological target: T1, CD47/SIRPα interaction (Homo sapiens, UniProt P78324); assay: Blocking assay by flow cytometry, preliminary screening at a single concentration, CD47/SIRPα; format: binding; details: preliminary test, single concentration of 100 μM
T1 construct: purchased ACRO Biosystem SIA-H5251; host or cells: CHOK1-CD47 cells (lenti-viral transfection)
Protocol: (§1) The abilities of small molecule inhibitors (SMIs) (purchased from TargetMol, Shanghai, China) to block the binding of SIRPα protein to CHOK1-CD47 cells or PVR protein to CHOK1-TIGIT cells were determined by flow cytometry, as previously reported. The SMIs at indicated concentrations were incubated with Fc-tagged SIRPα or PVR protein for 30 min at 4°C, followed by incubating with the indicated cells for another 30 min. Human SIRPα protein (SIA-H5251, ACRO Biosystem, Beijing, China), mouse SIRPα protein (SIA-M5258, ACRO Biosystem, Beijing, China), human PVR protein (CD5-H82F6, ACRO Biosystem, Beijing, China), and mouse PVR protein (50259-M03H, Sino Biological, Beijing, China) were used. PE-conjugated anti-human IgG antibody was used to detect the Fc protein bind to cells. Cells incubated with the Fc proteins and anti-human IgG antibody without the SMIs serve as the positive control. The mean fluorescent intensity (MFI) of each sample was detected and recorded by a flow cytometry. The blocking efficacy of the SMIs was calculated as the equation: (MFI of the positive control-MFI of the SMI)/MFI of the positive control × 100%.
(§2) The small molecule inhibitor could not only bind to the target; most importantly, it should interfere with the receptor–ligand interactions. Subsequently, the candidate inhibitors were screened by the blocking assays with the established CD47 and TIGIT over-expressing cell lines. The test was initialed with a preliminary screening of the candidates with a single concentration (Figure 2D). Generally, the SMI blocking efficacy to the CD47/SIRPα interaction was much higher than that of the TIGIT/PVR. […] Therefore, the SMI-F11 and SMI-F17 may exert dual blocking effects in the CD47/SIRPα and TIGIT/PVR pathways. Blocking assays with a concentration gradient of the SMI were further performed to validate the preliminary screening. […] The similar blocking assays with the mouse CD47 and TIGIT over-expressing cells were also performed. […] Considering that most pairs of the immune checkpoints interact with the corresponding ligand in parallel forms, the blocking assays with the PD-1/PD-L1 interaction system was also conducted to test the specificity.

TIGIT/PVR interaction = biological target: T2, TIGIT/PVR interaction (Homo sapiens, UniProt P15151); assay: Blocking assay by flow cytometry, preliminary screening at a single concentration, TIGIT/PVR; format: binding; details: preliminary test, single concentration of 100 μM
T2 construct: purchased ACRO Biosystem CD5-H82F6; host or cells: CHOK1-TIGIT cells (lenti-viral transfection)
T2 sequence (P15151 21-343 limits assumed): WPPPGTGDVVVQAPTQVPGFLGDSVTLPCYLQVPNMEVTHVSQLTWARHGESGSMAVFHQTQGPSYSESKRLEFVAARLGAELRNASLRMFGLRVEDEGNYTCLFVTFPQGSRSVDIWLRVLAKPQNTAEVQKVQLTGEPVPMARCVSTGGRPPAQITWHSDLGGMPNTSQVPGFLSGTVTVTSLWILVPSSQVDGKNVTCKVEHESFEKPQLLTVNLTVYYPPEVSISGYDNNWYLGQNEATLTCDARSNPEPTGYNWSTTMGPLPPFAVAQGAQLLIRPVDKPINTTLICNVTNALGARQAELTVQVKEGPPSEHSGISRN
Protocol: as §1, §2

human CD47/SIRPα = biological target: T3, human CD47/SIRPα (Homo sapiens, UniProt P78324); assay: Blocking assay, human SIRPα protein binding to CHOK1-hCD47 cells; details: concentration gradient
T3 construct: purchased ACRO Biosystem SIA-H5251; host or cells: soluble protein purchased; CD47 on CHOK1-hCD47 cells (lenti-viral transfection)
Protocol: as §1

human TIGIT/PVR = biological target: T4, human TIGIT/PVR (Homo sapiens, UniProt P15151); assay: Blocking assay, human PVR protein binding to CHOK1-hTIGIT cells; details: concentration gradient
T4 construct: purchased ACRO Biosystem CD5-H82F6; host or cells: soluble protein purchased; TIGIT on CHOK1-hTIGIT cells (lenti-viral transfection)
Protocol: as §1

T1 sequence (P78324 31-370 limits assumed): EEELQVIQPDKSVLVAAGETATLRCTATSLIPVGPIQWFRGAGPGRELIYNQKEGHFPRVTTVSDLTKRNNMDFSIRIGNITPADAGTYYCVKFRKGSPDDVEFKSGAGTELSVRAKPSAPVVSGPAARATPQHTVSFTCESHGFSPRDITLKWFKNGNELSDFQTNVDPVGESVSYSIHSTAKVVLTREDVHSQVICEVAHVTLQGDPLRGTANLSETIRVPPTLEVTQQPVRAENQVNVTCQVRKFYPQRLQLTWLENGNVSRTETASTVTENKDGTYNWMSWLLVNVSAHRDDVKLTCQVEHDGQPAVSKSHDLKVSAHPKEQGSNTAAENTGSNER
T3 sequence (P78324 31-370 limits assumed): as above

Row | Compound | blocking efficacy, CD47/SIRPα interaction (CD47/SIRPα interaction) | activity in interfering with the TIGIT/PVR interaction (TIGIT/PVR interaction) | concentration-dependent blocking effect, CD47/SIRPα (human CD47/SIRPα) | concentration-dependent blocking effect, TIGIT/PVR (human TIGIT/PVR)
1 | CCCSc1ccc2nc(NC(=O)OC)[nH]c2c1 [SMI-F16, Albendazole] |  | better activities |  | 
2 | COc1cccc(N(C)C(=S)Oc2ccc3c(c2)CCCC3)n1 [SMI-F20, Liranaftate] |  | better activities |  | 

Now from value to molecule, other results behind:

Row | blocking efficacy, CD47/SIRPα interaction (CD47/SIRPα interaction) | Compound | activity in interfering with the TIGIT/PVR interaction (TIGIT/PVR interaction) | concentration-dependent blocking effect, CD47/SIRPα (human CD47/SIRPα) | concentration-dependent blocking effect, TIGIT/PVR (human TIGIT/PVR)
3 | more than 50% | Cc1cc(O)c(C(=O)N[C@@H](C(=O)N[C@@H]2C(=O)N3C(C(=O)O)=C(CSc4nnnn4C)CS[C@H]23)c2ccc(O)cc2)cn1 [SMI-F12, Cefpiramide acid] |  |  | 
4 | more than 50% | O=C1[C@H](CC[C@H](O)c2ccc(F)cc2)[C@@H](c2ccc(O)cc2)N1c1ccc(F)cc1 [SMI-F17, Ezetimibe] | better activities | could not exert blocking effects in a concentration-dependent manner | could not exert blocking effects in a concentration-dependent manner
5 | more than 50% | Nc1cccc2c1CN(C1CCC(=O)NC1=O)C2=O (centres unmarked) [SMI-F19, Lenalidomide] |  |  | 
